Where two headings read alike, the source gives them in different places.
How the values were obtained:
[1] = tested on: 3T3-L1 cells; experiment: Induction of adipocyte differentiation (amount of triglyceride biosynthesis); format: cell-based; settings: Mus musculus, 3T3-L1; 13 μM; X=(S−N)/(P−N) of amount of triglyceride, P=insulin positive control; read-out: Action for Induction of Differentiation
Method: Induction of adipocyte differentiation was carried out by partially modifying the above-mentioned method of Rubin C. S. et al. In addition, as a test compound, a compound prepared in Examples mentioned above or a commercially available compound was used. 3T3-L1 cells (ATCC CCL-92.1) were suspended in a 10% fetal bovine serum (manufactured by Bio Whittaker)-containing Dulbecco's modified Eagle's medium (manufactured by Sigma, D6046) containing 200 μM ascorbic acid so as to have a density of 4×10^3 cells/mL, and the suspension was put in each well of a 12-well microtiter plate in an amount of 2 ml per well. The cells were cultured at 37° C. for 7 days in the presence of 5% carbon dioxide gas. On the seventh day, the medium was exchanged with a 10% fetal bovine serum (manufactured by Bio Whittaker)-containing Dulbecco's modified Eagle's medium containing 200 μM ascorbic acid and 0.25 μM dexamethasone, and a test compound dissolved in dimethyl sulfoxide in a concentration shown in each of Tables 16 to 19 was added to each well. Here, there were set a group with addition of 4 μL of an aqueous solution containing 5 mg/mL insulin (manufactured by TAKARA BIO INC.) as a positive control, and a group with addition of dimethyl sulfoxide as a negative control. After 45 hours, the medium was exchanged with a 10% fetal bovine serum-containing Dulbecco's modified Eagle's medium containing 200 μM ascorbic acid. A test compound, 2 μL of an aqueous solution containing 5 mg/mL insulin as a positive control, or dimethyl sulfoxide as a negative control was put to each well in the same concentration. The cells were cultured for additional 7 days. In addition, the medium was exchanged on after 2 days and after 5 days, and at that time, a test compound, 2 μL of an aqueous solution containing 5 mg/mL insulin as a positive control, or dimethyl sulfoxide as a negative control was put to each well in the same concentration.
The amount of triglyceride in the adipocytes was determined as an index of induction of differentiation into mature adipocytes, and also, as the evaluation of insulin-mimetic action.
After the termination of the culture, the medium was removed, and the cells were washed twice with a phosphate buffered saline. One milliliter of a solvent of hexane:isopropanol=3:2 was added to the cells. The mixture was allowed to stand at room temperature for 30 minutes, and thereafter the supernatant was collected. The procedures were repeated again, and 2 mL of the supernatant was concentrated to dryness. The precipitate was dissolved in 100 μL of isopropanol, and the amount of triglyceride contained in 10 μL of the solution was determined using a triglyceride E-test (manufactured by Wako Pure Chemical Industries, Ltd., code 432-40201). In addition, all the determinations were carried out twice. The action for induction of differentiation was calculated by the following calculation formula, and shown by four ranks of +++, ++, + and +/−. • S: Amount of triglyceride in the presence of a test compound; • N: Amount of triglyceride in the negative control; and • P: Amount of triglyceride in the positive control; X=(S−N)/(P−N) (Judgment of Action for Induction of Differentiation)

[2] = tested on: mature adipocytes (3T3-L1 cells); experiment: Enhancing action on glucose uptake (2-deoxyglucose) into mature adipocytes; format: cell-based; settings: Mus musculus
Method: The induction of differentation into nature adipocytes was carried out by partially modifying the above-mentioned method of Rubin C. S. et al. 3T3-L1 cells (ATCC CCL-92.1) were suspended in a 10% fetal bovine serum (manufactured by Bio Whittaker)-containing Dulbecco's modified Eagle's medium (manufactured by Sigma, D6046) containing 200 μM ascorbic acid so as to have a density of 4×10^3 cells/mL, and the suspension was put in each well of a collagen type I-coated 12-well plate (Iwaki Glass Co., Ltd., code 4815-010) in an amount of 2 mL per well. The cells were cultured at 37° C. for 7 days in the presence of 5% carbon dioxide gas. On the seventh day, the medium was exchanged with 2 mL of a 10% fetal bovine serum (manufactured by Bio Whittaker)-containing Dulbecco's modified Eagle's medium containing 200 μM ascorbic acid, 0.25 μM dexamethasone, 10 μg/mL insulin (manufactured by TAKARA BIO INC.) and 0.5 mM 3-isobutyl-1-methylxanthine (manufactured by nacalai tesque, 19624-86). After 45 hours, the medium was exchanged with 2 mL of a 10% fetal bovine serum-containing Dulbecco's modified Eagle's medium containing 200 μM ascorbic acid and 5 μg/mL insulin. The medium was exchanged on after 2 days and 5 days, and the cells were cultured for 7 days, to give mature adipocytes.
As the evaluation of the enhancing action on glucose uptake, and also as the evaluation of the insulin-mimetic action, the amount of 2-deoxyglucose uptake into mature adipocytes during the stimulation of the test compound in the adipocytes was determined. As a test compound, a compound prepared in the Examples mentioned above or a commercially available compound was used.
After the termination of the culture, the medium was removed, and the cells were washed twice with a 0.1% (w/v) bovine serum albumin (manufactured by Sigma, A8022)-containing Dulbecco's modified Eagle's medium. Thereafter, 1 mL of the same medium containing a test compound in a concentration shown in each of Tables 20 to 23 was put to each well. The cells were cultured overnight at 37° C. in the presence of 5% carbon dioxide gas. Here, a group without containing the test compound was set as a negative control. After the overnight culture, the cells were washed twice with a HEPES buffer (140 mM NaCl, 5 mM KCl, 2.5 mM MgSO4, 1 mM CaCl2, 20 mM HEPES-Na (pH 7.4)). The amount 0.9 mL of the buffer containing a test compound in the same concentration was added to each well. The cells were cultured at 37° C. for 75 minutes. During the culture, as a positive control, there was set a group with addition of insulin to the well without addition of a test compound at a point 45 minutes passed so as to have a final concentration of 1 μg/mL. Thereafter, 100 μL of a HEPES buffer containing 0.5 μCi/mL 2-deoxy-[1,2-^3H(N)]-glucose (manufactured by PerkinElmer Life Sciences Inc., NET549A) and 1 mM 2-deoxyglucose (manufactured by nacalai tesque, 10722-11) was added thereto. The cells were cultured at 37° C. for additional 10 minutes. After the termination of the culture, the supernatant was removed, and the cells were washed three times with a phosphate buffer cooled to 4° C. Thereafter, 0.5 mL of a 1% Nonidet P-40-containing phosphate buffer was added to lyse the cells, whereby 2-deoxy-[1,2-^3H(N)]-glucose subjected to uptake into the cells was eluted. The radioactivity was determined with a liquid scintillation counter LS6500 (manufactured by Beckmann) using 25 μL of the supernatant with Ultima Gold (manufactured by PerkinElmer Life Sciences Inc., 6013329) as a scintillation cocktail. The enhancing action on glucose uptake was calculated by the following calculation formula, and shown by four ranks of +++, ++, + and +/−. • S: Amount of 2-deoxyglucose uptake in the presence of a test compound; • N: Amount of 2-deoxyglucose uptake in the negative control; and • P: Amount of 2-deoxyglucose uptake in the positive control; X=(S−N)/(P−N) (Judgment of Enhancing Action for 2-Deoxyglucose Uptake)

[3] = 3T3-L1, 3 μM, X=(S−N)/(P−N) of 2-deoxyglucose uptake, P=insulin 1 μg/mL, read-out: Enhancing Action on Glucose Uptake
[4] = 3T3-L1, 10 μM, X=(S−N)/(P−N) of 2-deoxyglucose uptake, P=insulin 1 μg/mL, read-out: Enhancing Action on Glucose Uptake
[5] = 3T3-L1, 30 μM, X=(S−N)/(P−N) of 2-deoxyglucose uptake, P=insulin 1 μg/mL, read-out: Enhancing Action on Glucose Uptake
[6] = 3T3-L1, read-out: Enhancing Action on Glucose Uptake

Row | Structure (SMILES) | activation at 10 µM [2, 4] [%] | activation at 30 µM [2, 5] [%] | other results
1 | COc1ccc(C(C)=O)c(O)c1C [Compound (C022), 2′-hydroxy-3′-methyl-4′-methoxyacetophenone] |  |  | activation at 13 µM [1]: 15 to 30%
2 | COc1ccc(C(=O)/C=C/c2ccc(O)cc2)c(O)c1CCC(C)C [Compound (C043), 4,2′-dihydroxy-3′-(3-methylbutyl)-4′-methoxychalcone] | > 100 |  | activation at 3 µM [2, 3]: 15 to 30%
3 | C/C=C(/C)C(=O)OC1Cc2c(ccc3ccc(=O)oc23)OC1(C)C (centres unmarked) [Coumarin Compound B, 3′-angeloyloxy-3′,4′-dihydroseselin] | > 100 | > 100 | 
4 | CCCCC1OC(=O)C2=CCCCC21 (centres unmarked) [Sedanolide] | 15 to 30 | 60 to 100 | 
5 | CC(C)=CCCC1(C)C=Cc2c(ccc(C(=O)/C=C/c3ccc(O)cc3)c2O)O1 (centres unmarked) [Lespeol] | 60 to 100 | 60 to 100 | 
6 | C/C=C(/C)C(=O)OC1c2c(ccc3ccc(=O)oc23)OC(C)(C)C1OC(C)=O (centres unmarked) [Coumarin Compound A, 3′-acetoxy-4′-angeloyloxy-3′,4′-dihydroseselin] | > 100 | > 100 | 
7 | COc1ccc(C(=O)/C=C/c2ccc(O)cc2)c(O)c1C/C=C(\C)CC/C=C(\C)CCC=C(C)C [Compound (C053), 4,2′-dihydroxy-3′-farnesyl-4′-methoxychalcone] | > 100 | > 100 | activation at 3 µM [2, 3]: 30 to 60%
8 | O=C(/C=C/c1ccccc1)c1ccccc1 [Chalcone] | 30 to 60 | 30 to 60 | 
9 | CC(C)=CCC/C(C)=C/CC/C(C)=C/Cc1c(O)ccc(C(=O)/C=C/c2ccc(O)cc2)c1O [Compound (C058), 4,2′,4′-trihydroxy-3′-farnesylchalcone] |  | > 100 | 
10 | C/C=C(/C)C(=O)OC1C(O)c2c(ccc3ccc(=O)oc23)OC1(C)C (centres unmarked) [Coumarin Compound C, 3′-angeloyloxy-4′-hydroxy-3′,4′-dihydroseselin] |  | 30 to 60 | 
11 | CC(=O)c1ccc(OC2CCCCO2)c(C/C=C(\C)CCC=C(C)C)c1O (centres unmarked) [Compound (C045), 2′-hydroxy-3′-geranyl-4′-tetrahydropyranyloxyacetophenone] | 15 to 30 | 30 to 60 | 
12 | COc1ccc(C=O)c(O)c1 [2-Hydroxy-4-methoxybenzaldehyde] | 15 to 30 | 30 to 60 | 
13 | COc1ccc(C(=O)/C=C/c2ccc(O)cc2)c(O)c1CC1C2(C)CCC(O2)C1(C)C (centres unmarked) [TB7, 1-[3-(2,5-epoxy-2,6,6-trimethyl-cyclohexylmethyl)-2-hydroxy-4-methoxyphenyl]-3-(4-hydroxyphenyl)-2-propen-1-one] | > 100 | > 100 | 
14 | CC(=O)c1cc(CC=C(C)C)c(O)cc1O [Compound (C025), 2′,4′-dihydroxy-5′-prenylacetophenone] | 15 to 30 | 30 to 60 | 
15 | O=C(/C=C/c1ccc(O)c(O)c1)c1ccccc1O [Compound (C005), 3,4,2′-trihydroxychalcone] | 30 to 60 | 30 to 60 | 
16 | O=C(/C=C/c1ccc(O)c(O)c1)c1cc(O)ccc1O [Compound (C006), 3,4,2′,5′-tetrahydroxychalcone] | 30 to 60 |  | 
17 | CCC/C=C1\OC(=O)c2ccccc21 [n-Butylidenephthalide] |  |  | activation at 3 µM [2, 6]: 30 to 60%; activation at 10 µM [2, 6]: 60 to 100%; activation at 30 µM [2, 6]: > 100%
18 | O=C(/C=C/c1ccc(O)c(O)c1)c1ccc(Cl)cc1Cl [Compound (C011), 3,4-dihydroxy-2′,4′-dichlorochalcone] | 60 to 100 | > 100 | activation at 3 µM [2, 3]: 15 to 30%
19 | COc1ccc(C(=O)/C=C/C=C/c2ccccc2)c(O)c1CC=C(C)C [Compound (C-CIN), 1-(2-hydroxy-4-methoxy-3-prenylphenyl)-5-phenyl-2,4-pentadien-1-one] | 15 to 30 | > 100 | activation at 3 µM [2, 3]: 15 to 30%
20 | COc1ccc2c(c1CC=C(C)C)OC(c1ccco1)C(=Cc1ccco1)C2=O (centres unmarked) [Compound (FUR-2), 2-(2-furyl)-3-(2-furylmethylene)-2,3-dihydro-7-methoxy-8-prenyl-4H-1-benzopyran-4-one] | 30 to 60 | 30 to 60 | activation at 3 µM [2, 3]: 15 to 30%
21 | COc1ccc(C(=O)/C=C/c2ccc(OC3CCCCO3)cc2)c(O)c1CC=C(C)C (centres unmarked) [Compound (C030), 4-tetrahydropyranyloxy-2′-hydroxy-3′-prenyl-4′-methoxychalcone] | 30 to 60 | > 100 | 
22 | CCOc1ccc(C(=O)/C=C/c2ccc(O)cc2)c(O)c1C/C=C(\C)CCC=C(C)C [Compound (C050), 4,2′-dihydroxy-3′-geranyl-4′-ethoxychalcone] | > 100 |  | activation at 3 µM [2, 3]: 15 to 30%
23 | COc1ccc(C(=O)/C=C/c2ccc(O)c(O)c2)c(O)c1CC=C(C)C [Compound (C031), 3,4,2′-trihydroxy-3′-prenyl-4′-methoxychalcone] | 15 to 30 | > 100 | 
